Data taken from BindingDB's records for PubMed 35429911 (Univ. Lille, 2022).

Biological target: Programmed cell death 1 ligand/protein 1 (Homo sapiens, UniProt Q9NZQ7+Q15116)
Assay: Inhibition of human PD-1/PD-L1 interaction in CHO-K1 cells transfected with PD-1-YFP/SHP-2-CFP and measured by FRET assay

Chain of Programmed cell death 1 ligand/protein 1 (Q9NZQ7 whole entry): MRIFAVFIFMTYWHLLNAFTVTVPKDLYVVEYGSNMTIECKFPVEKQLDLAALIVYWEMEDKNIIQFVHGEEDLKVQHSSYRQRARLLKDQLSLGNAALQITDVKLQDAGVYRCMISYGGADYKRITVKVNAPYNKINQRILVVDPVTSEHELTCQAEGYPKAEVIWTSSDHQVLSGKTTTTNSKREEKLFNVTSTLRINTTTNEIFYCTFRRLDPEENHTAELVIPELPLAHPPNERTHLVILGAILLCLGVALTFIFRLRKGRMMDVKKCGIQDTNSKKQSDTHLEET
Chain of Programmed cell death 1 ligand/protein 1 (Q15116 whole entry): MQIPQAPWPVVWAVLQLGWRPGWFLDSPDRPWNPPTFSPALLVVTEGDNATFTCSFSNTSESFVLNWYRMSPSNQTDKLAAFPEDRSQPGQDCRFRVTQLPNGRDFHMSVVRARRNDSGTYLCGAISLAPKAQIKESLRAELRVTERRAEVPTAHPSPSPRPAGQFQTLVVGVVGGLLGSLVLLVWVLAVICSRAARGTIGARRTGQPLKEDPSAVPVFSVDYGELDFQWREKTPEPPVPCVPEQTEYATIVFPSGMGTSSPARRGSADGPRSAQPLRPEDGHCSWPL

## COc1ccccc1C1=NN(c2ccccn2)C(=O)C1
  IC50: 0.007 µM

## COc1ccc(C2=NN(c3ccccn3)C(=O)C2)cc1
  IC50: 0.017 µM
